Measured values from patent publication US12486218B2, “Compounds advantageous in the treatment of central nervous system diseases and disorders” (AurimMed Pharma, Inc., priority 2008, dated 2025).
Values joined by “and” are separate entries in the source; they are usually repeats but may differ in a detail not shown here. Equal entries are not always repeated. Where two headings read alike, the source gives them in different places.

Columns and labels:
[1] = test system: mice; assay: Maximal Electroshock Seizure (MES) test, mice i.p.; format: in vivo; conditions: for ED50: Mus musculus
[2] = test system: mice; assay: Subcutaneous Metrazol Seizure threshold (s.c. MET) test, mice i.p.; format: in vivo; conditions: for ED50: Mus musculus
[3] = test system: mice; assay: 6 Hz (minimal clonic seizure) model, mice i.p.; format: in vivo; conditions: ip
[4] = test system: rats; assay: Minimal motor impairment (MID50), rats p.o.; format: in vivo
[5] = test system: rats; assay: MES test, rats p.o.; format: in vivo; conditions: Rattus norvegicus, po
[6] = test system: rats; assay: s.c. MET test, rats p.o.; format: in vivo; conditions: Rattus norvegicus, p.o.
[7] = test system: rats; assay: Preliminary Hippocampal Kindling Screening in rats (i.p.); format: in vivo; conditions: at 65 mg/kg
[8] = test system: rats; assay: Hippocampal Kindled Rats model; format: in vivo; conditions: Rattus norvegicus
[9] = test system: C3A hepatocyte cells; assay: ACTIVTox LDH release assay; format: cell-based
Experimental: Compounds A, I, H, and F were tested by Stem Cell Innovations, Inc. (Houston, TX) in their ACTIVTox® Human Liver Cell-based assays (using C3A hepatocyte cells). Specifically, the compounds were tested in the LDH release assay, which determines the release of Lactate DeHydrogenase (an indicator of cell death) at various concentrations of test compound.
A concentration of 100 µM of test compound is a much higher level of exposure to liver cells than would ever be expected under physiological conditions. Therefore, using 100 μM as a standard test concentration (for comparative purposes), the ratio of the absorbance (which measures the level of LDH release) resulting from the presence of the test compound versus the negative control is a value known as the “average (or mean) fold control” (Average Fold Control=Average of Absorbance/Average of Negative Control).

[10] = test system: C3A hepatocyte cells; assay: ACTIVTox Cell Proliferation Assay; format: cell-based; conditions: at a concentration of 100 μM
[11] = test system: SMN2 promoter; assay: SMN2 promoter β-lactamase reporter assay in NSC34 motor neuron-like cells; format: cell-based
Experimental: FIG. 30 illustrates a screen for SMN2 expression of a number of compounds described herein.
SMN2 promoter activity was measured using NSC34 motor neuron-like cells stably transfected with a β-lactamase (BLA) reporter gene under the control of a 3.4-kilobase fragment of the SMN2 promoter. D156844 was used as a positive control for this assay.

[12] = test system: inclusion of exon 7 in SMN2 mRNAs; assay: Exon 7 inclusion BLA reporter assay in NSC34 cell line; format: cell-based
Text: To measure changes in the inclusion of exon 7 in SMN2 mRNAs, another NSC34 cell line was used that stably transfected with a reporter construct which expresses BLA when exon 7 is included in the SMN2 minigene mRNAs. 5-(N-ethyl-N-isopropyl)-amiloride (EIPA) was used as a positive control for this assay. Data for tis assay is illustrated in FIG. 30.

[13] = in vivo; conditions: mouse, ip
Experimental: (§1) The animal testing was performed according to methods known in the relevant art.

[14] = test system: mice; assay: Minimal motor impairment (MID50), mice i.p.; conditions: mice, i.p.
Experimental: as §1

[15] = test system: rats; assay: Pilocarpine-induced Status Epilepticus in Rats (prevention; intervention @ 30 min); conditions: for Prevention, Protection: rat, in vivo, 200 mg/kg
Experimental: The animal testing was performed using the protocols developed in the Anticonvulsant Screening Program (ASP) at the National Institute of Neurological Disorders and Stroke (NINDS), National Institutes of Health (NIH).

[16] = test system: mice; conditions: mouse, in vivo, ip
Experimental: as §1

[17] = test system: sodium channels; conditions: by way of comparison; cited from earlier work
[18] = test system: rats; conditions: male versus female kindled rats; cited from earlier work

CC(C)(CC(N)=O)c1ccc(Cl)cc1 [Compound A, 3-(4-Chlorophenyl)-3-methylbutyramide]
ED50 ([1]; ip, mice): 41.6 mg/kg | ED50 ([1]; ip, mice i.p., @ 0.25 hr): 41.6 mg/kg | ED50 ([2]; mice i.p., @ 0.25 hr): 39.3 mg/kg | ED50 ([2]; mice, i.p.): 39.3 mg/kg | ED50 ([3]; Mus musculus, mice, i.p., read-out: 6 Hz ED50): 47.6 mg/kg | MID50 [4]: 244.90 mg/kg | ED50 [5]: 28.8 mg/kg | ED50 [6]: 45 mg/kg | seizure score, Preliminary Hippocampal Kindling Screening [7]: zero | ED50 [8]: 26 mg/kg | LDH release, mean fold control ([9]; at 100 μM, C3A hepatocyte cells, value below 1.75 = no cyto- or hepatotoxic activity): 1.05 | cyto- or hepatotoxicity, ACTIVTox data ([9]; at physiologically relevant concentrations (i.e., <100 µM)): not cyto- or hepatotoxic | Cell Proliferation Assay, mean fold control [10]: 1.15 | toxicity to proliferating cells [10]: non-toxic | SMN2 promoter activity ([11]; treatment for 19 hours at a concentration of 1 μM): increased SMN2 promoter activity | effect on the inclusion of exon 7 in SMN2 transcripts ([12]; NSC34 exon 7 BLA reporter cells): positive effect on the inclusion of exon 7 | Exon 7 inclusion (summary YES/NO) ([12]; Table 13 summary): YES | TD50 [13]: 108 mg/kg | MID50 (median minimal motor impairment dose) [14]: 107.87 mg/kg | responders at 120 mg/kg ([15]; Rattus norvegicus, 0.5 h, read-out: Intervention @ 30 min, Protection): 57% | responders at 65 mg/kg ([15]; Rattus norvegicus, read-out: Prevention, Protection): 86%

NC(=O)CC1(c2cccc(Cl)c2)CCCC1 [CX]
MES, fraction of animals ([1]; mouse, in vivo, ip, 100 mg/kg): 4/4 @ and 3/4, 2/4 @ | s.c. MET, fraction of animals ([2]; mouse, in vivo, 100 mg/kg): 2/4 @ 0.25 hrs | Promoter (SMN2 promoter test, summary YES/NO) [11]: YES | SMN2 promoter activity [11]: increased SMN2 promoter activity | MID50, fraction of animals ([16]; 100 mg/kg): 8/8 @ 0.25 hrs

COc1ccc(C(C)CC(N)=O)cc1 (racemic) [BZ]
Promoter (SMN2 promoter test, summary YES/NO) [11]: YES | SMN2 promoter activity [11]: increased SMN2 promoter activity | MID50, result in words [16]: No | Prevention, Protection [15]: 100%

Nc1nnc(-c2cccc(Cl)c2Cl)c(N)n1 [lamotrigine]
% of control inhibited, sodium currents, typical sodium-channel-blocking drugs [17]: about 50%

O=C1NC(=O)C(c2ccccc2)(c2ccccc2)N1 [phenytoin]
% of control inhibited, sodium currents, typical sodium-channel-blocking drugs [17]: about 50% | efficacy in the two genders (comparison drug) [18]: significantly less effective in male kindled rats than it is in female kindled rats

Cc1ccc(C(CC(N)=O)C2CC2)cc1 (centres unmarked) [AL, 3-Cyclopropyl-3-ρ-tolyl-propionamide]
activity in the MES test ([1]; mouse, in vivo, 100 mg/kg): activity | 6 Hz (32 mA), fraction of animals ([3]; mouse, in vivo, 100 mg/kg): 4/4, 2/4, and 2/4 , 1/4 @ | SMN2 promoter activity [11]: increased SMN2 promoter activity | MID50, result in words [16]: No | Prevention, Protection [15]: 100%
